Experimental data: patent publication US8513260B2, “Pyrazinylpyrazoles” (Bayer CropScience AG, priority 2009, dated 2013)
Each block holds one compound with its values, some of them ahead of it.

What was measured:
[1] = tested on: adult Musca domestica; experiment: Musca domestica test; type: in vivo; details: 100 ppm; after 2 days
Protocol: Musca domestica Test Solvent: dimethyl sulphoxide To prepare an appropriate active ingredient formulation, 10 mg of active ingredient are mixed with 0.5 ml of dimethyl sulphoxide and the concentrate is diluted with water to the desired concentration. Vessels containing a sponge treated with the active ingredient preparation of the desired concentration are populated with adult Musca domestica. After 2 days, the kill in % is determined. 100% means that all of the flies have been killed; 0% means that none of the flies have been killed.

[2] = tested on: larvae of the mustard beetle (Phaedon cochleariae); experiment: Phaedon test (PHAECO spray treatment); type: in vivo; details: Chinese cabbage discs, after 7 days; for efficacy: 500 g/ha; for pest or weed control at 500 g/ha: Phaedon cochleariae, 168 h, read-out: efficacy
Protocol: Phaedon Test ([…] Spray Treatment) Solvent: 78.0 parts by weight of acetone • • 1.5 parts by weight of dimethylformamide Emulsifier: 0.5 part by weight of alkylaryl polyglycol ether To prepare an appropriate active ingredient preparation, 1 part by weight of active ingredient is mixed with the stated amounts of solvent and emulsifier, and the concentrate is diluted with emulsifier-containing water to the desired concentration. Discs of Chinese cabbage (Brassica pekinensis) are sprayed with an active ingredient preparation of the desired concentration and, after drying, populated with larvae of the mustard beetle (Phaedon cochleariae). After 7 days, the efficacy in % is determined. 100% means that all beetle larvae have been killed; 0% means that none of the beetle larvae have been killed.

[3] = tested on: unfed adult fleas (Ctenocephalides felis); experiment: Ctenocephalides felis test (CTECFE); type: in vivo; details: 100 ppm in citrated cow's blood; after 2 days
Protocol: Ctenocephalides felis Test ([…]) Solvent: 1 part by weight of dimethyl sulphoxide For the purpose of preparing an appropriate active ingredient formulation, 10 mg of active ingredient are mixed with 0.5 ml of dimethyl sulphoxide. A portion of the concentrate is diluted with citrated cow's blood and the desired concentration is established. About 20 unfed adult fleas (Ctenocephalides felis) are introduced into a chamber closed at the top and bottom with gauze. A metal cylinder, the bottom of which is closed with Parafilm, is placed onto the chamber. The cylinder contains the blood/active ingredient preparation, which can be imbibed by the fleas through the Parafilm membrane. After 2 days, the kill in % is determined. 100% means that all fleas have been killed; 0% means that none of the fleas have been killed.

[4] = tested on: caterpillars of the armyworm (Spodoptera frugiperda); experiment: Spodoptera frugiperda test (SPODFR spray treatment); type: in vivo; details: maize leaf discs, after 7 days; for efficacy: 500 g/ha; for pest or weed control at 500 g/ha: Spodoptera frugiperda, foliar, 168 h, read-out: efficacy
Protocol: Spodoptera frugiperda Test (SPODFR Spray Treatment) Solvent: 78.0 parts by weight of acetone • • 1.5 parts by weight of dimethylformamide Emulsifier: 0.5 part by weight of alkylaryl polyglycol ether To prepare an appropriate active ingredient preparation, 1 part by weight of active ingredient is mixed with the stated amounts of solvent and emulsifier, and the concentrate is diluted with emulsifier-containing water to the desired concentration. Discs of maize leaves (Zea mays) are sprayed with an active ingredient preparation of the desired concentration and, after drying, populated with caterpillars of the armyworm (Spodoptera frugiperda). After 7 days, the efficacy in % is determined. 100% means that all caterpillars have been killed; 0% means that none of the caterpillars have been killed.

[5] = tested on: Boophilus microplus; experiment: Boophilus microplus test (BOOPMI injection); type: in vivo; details: 20 μg animal; injection into the abdomen; after 7 days, laying of fertile eggs
Protocol: Boophilus microplus Test (BOOPMI Injection) Solvent: dimethyl sulphoxide To prepare an appropriate active ingredient formulation, 10 mg of active ingredient are mixed with 0.5 ml of solvent and the concentrate is diluted with solvent to the desired concentration. The active ingredient solution is injected into the abdomen (Boophilus microplus), and the animals are transferred into dishes and stored in a climate-controlled room. The efficacy is assessed by laying of fertile eggs. After 7 days, the efficacy in % is determined. 100% means that none of the ticks has laid any fertile eggs.

[6] = tested on: red spider mite (Tetranychus urticae); experiment: Tetranychus test, OP-resistant (TETRUR spray treatment); type: in vivo; details: 500 g/ha, bean leaf discs, after 6 days; for pest or weed control at 500 g/ha: Tetranychus urticae, foliar, 144 h, read-out: efficacy
Protocol: Tetranychus Test, OP-Resistant (TETRUR Spray Treatment)
Solvent: 78.0 parts by weight of acetone • • 1.5 parts by weight of dimethylformamide
Emulsifier: 0.5 part by weight of alkylaryl polyglycol ether
To prepare an appropriate active ingredient preparation, 1 part by weight of active ingredient is mixed with the stated amounts of solvent and emulsifier, and the concentrate is diluted with emulsifier-containing water to the desired concentration. Discs of bean leaves (Phaseolus vulgaris) infested by all stages of the red spider mite (Tetranychus urticae) are sprayed with an active ingredient preparation of the desired concentration. After 6 days, the efficacy in % is determined. 100% means that all spider mites have been killed; 0% means that none of the spider mites have been killed.

[7] = tested on: green peach aphid (Myzus persicae); experiment: Myzus test (MYZUPE spray treatment); type: in vivo; details: Chinese cabbage discs, after 6 days; for efficacy: 500 g/ha; for pest or weed control at 500 g/ha: Myzus persicae, 144 h, read-out: efficacy
Protocol: Myzus Test (MYZUPE Spray Treatment) Solvent: 78 parts by weight of acetone • • 1.5 parts by weight of dimethylformamide Emulsifier: 0.5 part by weight of alkylaryl polyglycol ether To prepare an appropriate active ingredient preparation, 1 part by weight of active ingredient is mixed with the stated amounts of solvent and emulsifier, and the concentrate is diluted with emulsifier-containing water to the desired concentration. Discs of Chinese cabbage (Brassica pekinensis) infested by all stages of the green peach aphid (Myzus persicae) are sprayed with an active ingredient preparation of the desired concentration. After 6 days, the efficacy in % is determined. 100% means that all of the aphids have been destroyed; 0% means that none of the aphids have been destroyed.

[8] = logP by HPLC on reversed-phase columns (C 18), EEC Directive 79/831 Annex V.A8; type: physicochemical; details: acidic range pH 2.7, 0.1% aqueous formic acid and acetonitrile; for chromatographic logP: reversed-phase C18 HPLC column, pH 2.7, * LC-MS, read-out: log P
Source text: [table] The calibration is effected with unbranched alkan-2-ones (having 3 to 16 carbon atoms) with known logP values (logP values determined on the basis of the retention times by linear interpolation between two successive alkanones).

Compound: COc1nccnc1-n1nc(C(F)(F)F)c(-c2cc(Cl)cc(Cl)c2)c1N [Ex. 6]
efficacy (kill) [1]: 80% | efficacy [2]: 100% | efficacy (kill) [3]: 90% | efficacy [4]: 83% | efficacy [5]: 100%

Compound: C=Cc1nn(-c2nccnc2OC)c(N)c1-c1cc(Cl)cc(C(F)(F)F)c1 [Ex. 9]
efficacy [2]: 100% | efficacy [6]: 100% | efficacy [7]: 100% | efficacy [4]: 100% | efficacy [5]: 100%

Compound: COc1nccnc1-n1nc(C(F)(F)F)c(-c2cc(Cl)cc(C(F)(F)F)c2)c1N [Ex. 10]
efficacy (kill) [1]: 100% | efficacy (kill) [3]: 90% | efficacy [5]: 100%

Compound: CCOc1nccnc1-n1nc(C(F)(F)F)c(-c2cc(Cl)cc(C(F)(F)F)c2)c1N [Ex. 12]
efficacy (kill) [1]: 100% | efficacy [2]: 100% | efficacy [6]: 90% | efficacy (kill) [3]: 90% | efficacy [5]: 100%

Compound: COc1nccnc1-n1nc(C(F)(F)C(F)(F)F)c(-c2cc(F)cc(C(F)(F)F)c2)c1N [Ex. 21]
efficacy (kill) [1]: 100% | efficacy [2]: 100% | efficacy [6]: 100% | efficacy [7]: 100% | efficacy [4]: 100% | efficacy [5]: 100%

log P ([8]; * LC-MS): 4.9*
Compound: CSc1nccnc1-n1nc(C(F)(F)F)c(-c2cc(Cl)cc(C(F)(F)F)c2)c1N [Ex. 28]
efficacy [2]: 100% | efficacy [4]: 100% | efficacy [5]: 100%

Compound: COc1nccnc1-n1nc(C(F)(F)F)c(-c2cc(Cl)cc(C(F)(F)F)c2)c1NCc1ccccc1 [Ex. 33]
efficacy [2]: 100% | efficacy [6]: 90% | efficacy [7]: 80%

Compound: COc1ccc(CNc2c(-c3cc(Cl)cc(C(F)(F)F)c3)c(C(F)(F)F)nn2-c2nccnc2OC)cc1 [Ex. 41]
efficacy [2]: 100% | efficacy [7]: 90% | efficacy (kill) [3]: 80%

Compound: COc1nccnc1-n1nc(C(F)(F)C(F)(F)C(F)(F)F)c(-c2cc(Cl)cc(C(F)(F)F)c2)c1N [Ex. 46]
efficacy [2]: 100% | efficacy [6]: 80% | efficacy [7]: 80% | efficacy (kill) [3]: 80% | efficacy [4]: 100% | efficacy [5]: 100%

Compound: COc1nccnc1-n1nc(C(F)(F)C(F)F)c(-c2cc(Cl)cc(C(F)(F)F)c2)c1N [Ex. 59]
efficacy [2]: 100% | efficacy [6]: 100% | efficacy [7]: 100% | efficacy [4]: 83%

chromatographic logP [8]: 3.18
Compound: COc1nccnc1-n1nc(C(F)(F)F)c(-c2cc(Br)c3c(c2)OCO3)c1N [Ex. 74]
pest or weed control at 500 g/ha [2]: 100% | pest or weed control at 500 g/ha [6]: 90% | pest or weed control at 500 g/ha [7]: 90% | pest or weed control at 500 g/ha [4]: 100%

chromatographic logP [8]: 2.96
Compound: COc1nccnc1-n1nc(C(C)C)c(-c2cc(Cl)c3c(c2)OCO3)c1N [Ex. 77]
pest or weed control at 500 g/ha [2]: 100% | pest or weed control at 500 g/ha [6]: 100% | pest or weed control at 500 g/ha [7]: 100% | pest or weed control at 500 g/ha [4]: 100%

Compound: COc1cc(-c2c(C(F)(F)F)nn(-c3nccnc3OC)c2N)cc(C(F)(F)F)c1OC [Ex. 89]
efficacy (kill) [1]: 80% | efficacy [2]: 100% | efficacy (kill) [3]: 100% | efficacy [4]: 100% | efficacy [5]: 100%

Compound: C=CCN(CC=C)c1c(-c2cc(Cl)cc(C(F)(F)F)c2)c(C(F)(F)F)nn1-c1nccnc1OC [Ex. 103]
efficacy [7]: 80%

Compound: COc1nccnc1-n1nc(C(F)(F)F)c(-c2cc(Br)c3c(c2)OCCCO3)c1N [Ex. 131]
efficacy (kill) [1]: 100% | efficacy [2]: 100% | efficacy [6]: 100% | efficacy (kill) [3]: 100% | efficacy [4]: 100% | efficacy [5]: 100%

Compound: COc1nccnc1-n1nc(C(F)(F)F)c(-c2cc(Cl)c3c(c2)COCO3)c1N [Ex. 135]
efficacy [2]: 100% | efficacy (kill) [3]: 100% | efficacy [4]: 80% | efficacy [5]: 100%

Compound: COc1nccnc1-n1nc(C(F)(F)F)c(-c2cc(Cl)c3c(c2)OCCCO3)c1N [Ex. 136]
efficacy [2]: 100% | efficacy (kill) [3]: 100% | efficacy [5]: 100%

chromatographic logP [8]: 2.66
Compound: COc1nccnc1-n1nc(C(F)(F)F)c(-c2cc(C#N)c3c(c2)OCO3)c1N [Ex. 150]
pest or weed control at 500 g/ha [2]: 100% | pest or weed control at 500 g/ha [6]: 100% | pest or weed control at 500 g/ha [7]: 100% | pest or weed control at 500 g/ha [4]: 100%

Compound: C=C(C)c1nn(-c2nccnc2OC)c(N)c1-c1cc(Cl)cc(Cl)c1 [Ex. 167]
efficacy [2]: 100% | efficacy [6]: 100% | efficacy [7]: 100%

Compound: COc1nccnc1-n1nc(C(C)(C)F)c(-c2cc(Cl)cc(Cl)c2)c1N [Ex. 168]
efficacy [2]: 100% | efficacy [6]: 100% | efficacy [7]: 100% | efficacy [4]: 100%

chromatographic logP [8]: 3.26
Compound: COc1nccnc1-n1nc(C(F)(F)Cl)c(-c2cc(Cl)c3c(c2)OCO3)c1N [Ex. 169]
pest or weed control at 500 g/ha [2]: 100% | pest or weed control at 500 g/ha [6]: 100% | pest or weed control at 500 g/ha [7]: 100% | pest or weed control at 500 g/ha [4]: 100%

chromatographic logP [8]: 2.96
Compound: CCOc1nccnc1-n1nc(CC)c(-c2cc(Cl)c3c(c2)OCO3)c1N [Ex. 170]
pest or weed control at 500 g/ha [2]: 100% | pest or weed control at 500 g/ha [6]: 100% | pest or weed control at 500 g/ha [7]: 100% | pest or weed control at 500 g/ha [4]: 100%

chromatographic logP [8]: 3.48
Compound: CCOc1nccnc1-n1nc(C(F)(F)F)c(-c2cc(Cl)c3c(c2)OCO3)c1N [Ex. 171]
pest or weed control at 500 g/ha [2]: 100% | pest or weed control at 500 g/ha [6]: 100% | pest or weed control at 500 g/ha [7]: 100% | pest or weed control at 500 g/ha [4]: 100%

chromatographic logP [8]: 3.01
Compound: CCOc1nccnc1-n1nc(C(F)(F)F)c(-c2cc(C#N)c3c(c2)OCO3)c1N [Ex. 172]
pest or weed control at 500 g/ha [2]: 100% | pest or weed control at 500 g/ha [6]: 100% | pest or weed control at 500 g/ha [7]: 100% | pest or weed control at 500 g/ha [4]: 100%

chromatographic logP [8]: 2.91
Compound: COc1nccnc1-n1nc(C(F)(F)F)c(-c2cc(F)c3c(c2)OCO3)c1N [Ex. 174]
pest or weed control at 500 g/ha [2]: 100% | pest or weed control at 500 g/ha [6]: 100% | pest or weed control at 500 g/ha [7]: 100% | pest or weed control at 500 g/ha [4]: 100%

chromatographic logP [8]: 3.27
Compound: CCOc1nccnc1-n1nc(C(F)(F)F)c(-c2cc(F)c3c(c2)OCO3)c1N [Ex. 175]
pest or weed control at 500 g/ha [2]: 100% | pest or weed control at 500 g/ha [6]: 100% | pest or weed control at 500 g/ha [7]: 100% | pest or weed control at 500 g/ha [4]: 100%
